Experiments:
[1] = tested on: H9c2 heart cardiomyocytes; experiment: Cellular bioenergetics measurements (oxygen consumption rate, XF96 Seahorse); type: cell-based, rat; conditions: for Effect of H2O2 treatment on OCR after pre-treatment: 5 μM overnight pre-treatment
Experimental: H9C2 heart cardiomyocytes were treated with 5 μM DT3 or 5 μM DG-3 or vehicle control (DMSO) overnight. Oxygen Consumption Rates (OCR) were measured and cellular bioenergetics profiles were determined using XF96 Seahorse Extracellular Flux Analyzer.
FIG. 6 is a graph showing the effects of hydrogen peroxide on the OCR of cardiomyocytes after the indicated treatments. H9C2 heart cardiomyocytes were exposed to 50 or 100 μM H2O2 for 4 h. Oxygen Consumption Rates (OCR) were measured and cellular bioenergetics profiles were determined using XF96 Seahorse Extracellular Flux Analyzer.
FIG. 7 is a graph showing the effects of 50 μM hydrogen peroxide on the OCR of cardiomyocytes after the indicated pre-treatment with DMSO (dimethylsulfoxide vehicle), DT3 or DG-3. Cellular bioenergetic profiles were determined using XF96 Seahorse Extracellular Flux Analyzer.
FIG. 8 is a graph showing the effects of 100 μM hydrogen peroxide on the OCR of cardiomyocytes after the indicated pre-treatment with DMSO (dimethylsulfoxide vehicle), DT3 or DG-3. Cellular bioenergetic profiles were determined using XF96 Seahorse Extracellular Flux Analyzer.
FIG. 9 is a graph showing the effects of 6 Gy ionizing radiation on the OCR of cardiomyocytes after the indicated pre-treatment with DMSO (dimethylsulfoxide vehicle). DT3 or DG-3. Cellular bioenergetic profiles were determined using XF96 Seahorse Extracellular Flux Analyzer 1 h following radiation exposure.
Cellular oxygen consumption rates (OCR) were measured at 37° C. using an XF96 extracellular analyzer (Seahorse Bioscience) as previously described (Ferrick D A, Neilson A, and Beeson C. Advances in measuring cellular bioenergetics using extracellular flux. Drug Discov Today 2008; 13: 268-274). Briefly, 10,000 H9C2 cells per well were plated. The cells were treated with 5 μM DT3 or 5 μM DG-3 or vehicle control (DMSO) overnight. Cells were then exposed to 0, 50 or 100 μM H2O2 for 4 h or 6 Gy ionizing radiation (IR). The media in the wells were changed to unbuffered Dulbecco's Modified Eagle Medium (DMEM) supplemented with 4 mM […] and incubated in a non-CO2 incubator for 1 h at 37° C. Three baseline measurements were acquired before injection of mitochondrial inhibitors or uncouplers. Readings were taken after sequential addition of oligomycin (10 μM), FCCP (10 μM), and rotenone/antimycin A (10 μM). OCR was calculated by the Seahorse XF96 software and represents an average of 12-16 measurements.

[2] = tested on: Wistar rat liver microsomes; experiment: Inhibition of TBHP induced lipid peroxidation in rat liver microsomes; type: biochemical; conditions: rat liver microsomes 1 mg/ml, 1 h pre-incubation at 37° C., 200 μM TBHP for 30 min; read-out: IC50 inhibition of lipid peroxidation (antioxidant potential)
Experimental: Data are means±SEM of triplicate experiments. One of the most well-known properties of the vitamin E components is their ability to prevent lipid peroxidation. See Traber et al. (2011) Free Radic Biol Med 51(5):1000-1013. Briefly, the antioxidant activity of DG-3 was evaluated in rat liver microsomes by measuring inhibition of lipid peroxidation after TBHP ([…]) treatment. Wistar rat liver microsomes (BD Biosciences) were diluted in phosphate buffer, 0.1 M (pH 7.4), at the final protein concentration of 1 mg/ml. The microsomes were treated with different concentrations of DG-3 or DT3 (diluted with DMSO) and incubated at 37° C. for 1 hour before inducing lipid peroxidation with 200 μM TBHP (DMSO) for 30 min.

[3] = tested on: H9C2 rat heart cardiomyocyte cells; experiment: Total antioxidant capacity (copper reducing equivalents) of cardiomyocytes; type: cell-based; conditions: 5 μM treatment
Excerpt: (§1) DG-3, provided herein, is a standardized extract derived from annatto seeds that contains only […] and GT3. Because radiation-induced mitochondrial damage and oxidative stress impacts several critical biologic parameters such as DNA damage repair and stem cell fate, in this research we have compared the effects of DT3, GT3, and DG-3 against radiation induced mitochondrial dysfunction and oxidative stress. […] Furthermore, the same treatment preserved the cell viability and mitochondrial respiration in these cells when followed by oxidative insult via H2O2 treatment. Methods of making DG-3 and methods of using these compositions are provided herein.

[4] = tested on: H9c2 heart cardiomyocytes; experiment: Morphology assay of cardiomyocytes exposed to H2O2; type: cell-based, rat
Experimental: FIG. 3 is a set of photographs showing the cardiomyocytes after the indicated treatments. H9C2 heart cardiomyocytes were treated with 5 μM DT3 or 5 μM DG-3 or vehicle control (DMSO) overnight. Cells were then exposed to H2O2 for 4 h. Morphological changes were recorded under an inverted microscope.
as §1
H9c2 heart cardiomyocytes were treated with 5 μM DT3 or 5 μM DG-3 or vehicle control (DMSO) overnight. Cells were then exposed to 100 or 200 μM H2O2 for 4 h. Morphological changes were recorded under an inverted microscope.

[5] = 5 μM treatment followed by H2O2 treatment

## CC(C)=CCC/C(C)=C/CC/C(C)=C/CC[C@]1(C)CCc2cc(O)cc(C)c2O1 [DT3, δ-tocotrienol]
[1]; 50 μM H2O2 for 4 h (FIG. 7)
  Effect of H2O2 treatment on OCR after pre-treatment: eliminated
[1]; 100 μM H2O2 for 4 h (FIG. 8)
  Effect of H2O2 treatment on OCR after pre-treatment: significantly reduced
[1]; 5 μM overnight, no H2O2 (FIG. 5)
  Oxygen consumption rate (OCR) compared to controls: modestly improved
[1]; [5]
  Mitochondrial respiration after oxidative insult via H2O2: preserved
[2]
  IC50: 2580 nM
[3]
  Total antioxidant capacity (copper reducing equivalents): did not change
[4]; 5 μM overnight pre-treatment, then 100 μM H2O2 for 4 h
  Morphological changes (cell damage) after H2O2: damage is limited
[4]; 5 μM overnight pre-treatment, then 200 μM H2O2 for 4 h
  Morphological changes (cell monolayer) after H2O2: still maintain a monolayer with only a few rounded cells
[4]; [5]
  Cell viability after oxidative insult via H2O2: preserved

From US10357474B2, “Preparation and use of a composition for prevention and mitigation of the effects of radiation” (BioVentures, LLC, priority 2013, dated 2019)
